Data reported in patent publication US10154991B2, “Anesthetic compounds and related methods of use” (priority 2012, dated 2018).
Like-named read-outs stand apart in the source and are kept apart here.

Experiments:
dogs and monkeys = experiment: Preliminary studies of duration of action in dogs and monkeys; format: in vivo; conditions: large animals, similar to that in rats
ICR mice = experiment: In vivo sedative/hypnotic testing, IV bolus, mice; design: species or system mouse; conditions: for slope of duration of LORR vs logarithm of dose: mice
Procedure: (§1) Animals were housed in a dedicated room at the vivarium of VivoPath Inc., located at Redstone Center, 55 Union Street, Worcester, Mass. Housing and care was as specified in the USDA Animal Welfare Act (9 CFR, Parts 1, 2, and 3) and as described in the Guide for the Care and Use of Laboratory Animals from the National Research Council. Environmental conditions of housing rooms are set at the following ranges: temperature: 70±7° F. (22±4° C.), humidity: 50±20%, light cycle: 12-hour light/12-hour dark cycle—lights on at 7 am and off at 7 pm., air changes: ten or more air changes per hour with 100% fresh air. The animals' body weights were measured prior to the first dose on each experimental day.
Adult ICR mice (20-30 g) were purchased from Harlan (South Easton, Mass.). Drugs were administered as intravenous bolus injection in a tail vein.
(§2) Drugs were prepared in either dimethylsulfoxide/saline or saline vehicle or hydroxypropyl-β-cyclodextrin (20% in water, pH 7.0) solution and were administered as an intravenous bolus injection. Animals received 1-4 doses of drug(s) during an experimental day, either ascending doses or different drugs. Doses were administered at intervals equal to the longer of 1 h or 10-times the duration of apparent sedative/hypnotic effects from the previous dose. The sedative/hypnotic properties of the drugs were evaluated by observation of the rats, ranging from mild excitation, mild sedation apparent due to reduced activity, and moderate sedation to hypnosis reflected by loss of righting reflex (LORR, the ability to place rear and hind legs under the body, as well as attenuation/loss of nociceptive reflexes).

[1] = Octanol:water partition coefficients; format: physicochemical; conditions: 10 mM Tris pH 7.4; read-out: Octanol/Water Partition Coefficient ± SD (converted)
Procedure: One mg of each hypnotic was added to 10 ml of water buffered with 10 mM Tris (pH 7.4) and 0.5 ml or 1 ml of octanol. The mixture was stirred overnight and then centrifuged to more fully separate the organic and aqueous phases. The relative hypnotic concentrations in each phase (i.e. the partition coefficient) were determined by high performance liquid chromatography as described for blood.

rats = experiment: loss of righting reflexes (LORR) assay after IV bolus; conditions: for ED50: Rattus norvegicus, iv, read-out: ED50 ± SD; for Slope of Duration vs. Log Dose ± SD: duration of LORR vs log dose, rats
Procedure: Adult male Sprague-Dawley rats (230-350 gm) were purchased from Charles River Laboratories (Wilmington, Mass.) and housed in the Massachusetts General Hospital Center for Comparative Medicine animal care facility. All drugs were administered through a femoral venous catheter pre-implanted by the vendor prior to animal delivery to our animal care facility.
Immediately after injection, rats were turned supine. […] A stopwatch was used to measure the duration of LORR, which was defined as the time from drug injection until the animal spontaneously righted itself.

Sprague-Dawley rats = experiment: In vivo sedative/hypnotic testing, IV bolus, rats; design: species or system rat; conditions: for slope of duration of LORR vs logarithm of dose: rats
Procedure: as §1
Adult male Sprague-Dawley rats (225-300 g) were purchased from Harlan (South Easton, Mass.).
as §2

[2] = In vitro metabolic half-life of hypnotics in rat blood; format: in vitro ADME; conditions: Sprague-Dawley, rat, rat blood
Procedure: On the day of study, whole blood was drawn from the femoral venous catheters of 3 Sprague-Dawley rats (1-2 ml/rat), immediately anticoagulated with heparin (38 U), pooled, and stored on ice. A 1 ml aliquot of blood was warmed at 37° C. for 5 minutes and hypnotic (from a 40 mM in dimethyl sulfoxide stock solution) was added to a final concentration of 100 μM. After the desired incubation time, a 150 μl sample was removed and the metabolic reaction was quenched with 150 μl acetonitrile (Sigma-Aldrich, St. Louis, Mo.). Zero time point samples were prepared by adding 150 μl acetonitrile to blood prior to adding hypnotic (from a 4 mM in dimethyl sulfoxide stock solution). The quenched samples were centrifuged and the resultant supernatant separated and stored at −20° C. until analyzed. Hypnotic concentrations in thawed samples were determined by high performance liquid chromatography using a Varian Prostar system with a 4.6×250 mm Proto 300 C18 column (Nest Group, Southborough, Mass.) with the UV detector set at 240 nm.

[3] = From Pejo et al.; cited from earlier work
beagle dogs = conditions: dogs
Procedure: A pilot study was conducted in dogs to assess anesthesia induced by cyclopropyl-MOC-metomidate continuous infusion without a bolus induction dosing. Two dogs received cyclopropyl-MOC-metomidate as a 1 mg/kg/min IV infusion without prior bolus administration.
Anesthesia induction was determined using the methods described above.
Etomidate was administered to dogs at IV bolus doses ranging from 0.25 to 2 mg/kg. Anesthesia in the dogs was measured as described above. […] The bolus dose of 2 mg/kg was adopted to induce anesthesia prior to subsequent continuous infusions.
Propofol was administered to dogs as an IV bolus dose of 5 mg/kg to induce anesthesia followed by a continuous infusion at 0.4 mg/kg/min.

[4] = test system: adrenal cortisol production
Procedure: Dexamethasone (0.01 mg/kg) was administered two hours before the first administration of ACTH and re-administered every 2 hours to maintain suppression. Dexamethasone pretreatment suppresses the hypothalamo-hypophyseal axis to prevent endogenous ACTH release and subsequent adrenocortical steroid secretion. […] Synthetic ACTH (Synacthen, 250 μg) was then administered at times after test substance administration to evaluate the effects of the test substance on the release of the adrenal steroid, cortisol.
All study methods described for Study 1 were repeated, except the ACTH administration at the end of infusion was omitted.

[5] = pooled heparinised whole blood, 37° C., 100 μM, read-out: Blood Half-Life (95% CI)

For `COC(=O)CCOC(=O)c1cncn1[C@H](C)c1ccccc1` [Methoxycarbonyl etomidate, methoxycarbonyl etomidate, reference compound], the duration of action (dogs and monkeys) was 1 to 2 min, the ED50 (ICR mice; Mus musculus, sedation/hypnosis, IV) was ~10 mg/kg and the “slope of duration of LORR vs logarithm of dose” value (shortened to “slope … vs logarithm of dose”) (ICR mice) was “approximately 1.0”. For the same compound, the logD [1] was 2.28, the ED50 (rats) was 5.3 ± 1.5 mg/kg and the “Slope of Duration vs. Log Dose ± SD” value (rats) was 1.0±0.3 min/(log mg/kg). The Rat response (Sprague-Dawley rats; IV bolus, doses as in the cell) was “Sedation/hypnosis induced at 8 &”, the ED50 (Sprague-Dawley rats; Rattus norvegicus, sedation/hypnosis, IV) was ~8 mg/kg and the “slope … vs logarithm of dose” value (Sprague-Dawley rats) was “approximately 1.0”. The half-life at 100 μM [2, 5] was 24.6 s, the half-life at 100 μM ([2]; 37° C., 100 μM, read-out: Blood Half-Life (95% CI)) was 8.4 s and the half-life at 100 μM ([2]; bound based on the lower limit of quantification, read-out: metabolic half-life in rat blood (converted)) was 20 s.
For `COC(=O)[C@@H](OC(=O)c1cncn1[C@H](C)c1ccccc1)C(C)C` [R-isopropyl-methoxycarbonyl metomidate], the logD [1] was 3.58, the ED50 (rats) was 3.6 ± 0.8 mg/kg and the “death of a rat after dosing” value (rats; one rat, 20 mg/kg dose) was “died after receiving a 20 mg/kg dose”. The half-life at 100 μM [2, 5] was 9 s.
For `CCOC(=O)c1cncn1[C@H](C)c1ccccc1` [Etomidate, (R)-ethyl-1-(1-phenylethyl)-1H-imidazole-5-carboxylate, reference compound], the “slope … vs logarithm of dose” value (ICR mice) was “approximately 10”, the ED50 (rats) was 0.53 ± 0.17 mg/kg and the “Slope of Duration vs. Log Dose ± SD” value (rats) was 24±4.7 min/(log mg/kg). For the same compound, the “Octanol/Water Partition Coefficient ± SD” value [3] was 800 ± 180, the “slope … vs logarithm of dose” value (Sprague-Dawley rats) was ~24 and the “involuntary movements during recovery” value (beagle dogs) was “extended periods of involuntary movements”. The “bolus dose range inducing anesthesia” value (beagle dogs; IV bolus 0.25 to 2 mg/kg tested) was 0.5 to 2 mg/kg, the “minimum initial effective continuous infusion dose rate” value (beagle dogs; after 2 mg/kg bolus) was 0.15 mg/kg/min and the “respiratory effect during infusion” value (beagle dogs; after approximately 30 minutes at 0.15 mg/kg/min) was “decrease in respiratory rate”. For the same compound, the “context dependence of recovery from anesthesia” value (beagle dogs; bolus vs 30- or 120-minute infusion) was “marked context-dependency”, the “ACTH-induced plasma cortisol response” value ([4]; Study 1, dogs, after 120-minute infusion) was “markedly inhibited” and the adrenal suppression ([4]; dogs, compared with the other test substances) was “more profound and durable adrenal suppression”.
